# Measured values reported in patent publication US20220204491A1, “FXR (NR1H4) MODULATING COMPOUNDS” (Gilead Sciences, Inc., priority 2019, published 2022).
# Molecular target: T1, human FXR alpha ligand binding domain (LBD) (Homo sapiens, UniProt Q96RI1)
# T1 construct: made in house; host or cells: E. coli BL21(DE3), vector pDEST15
# T1 sequence (Q96RI1 187-472 isoform Q96RI1-2): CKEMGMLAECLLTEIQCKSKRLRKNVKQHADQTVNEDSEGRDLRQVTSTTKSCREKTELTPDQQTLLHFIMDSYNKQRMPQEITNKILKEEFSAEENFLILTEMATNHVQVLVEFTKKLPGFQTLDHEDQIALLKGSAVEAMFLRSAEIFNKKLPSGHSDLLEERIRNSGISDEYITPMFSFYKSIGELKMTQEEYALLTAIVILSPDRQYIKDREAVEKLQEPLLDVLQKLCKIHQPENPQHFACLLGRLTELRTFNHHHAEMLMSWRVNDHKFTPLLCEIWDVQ
# Assay: FRET activity assay (FXR-LBD / SRC-1 cofactor peptide interaction, LANCE)
# Type: biochemical
# Settings: GST-FXR-LBD, biotinylated SRC-1 peptide 676-700
# Method: Determination of a ligand mediated cofactor peptide interaction to quantify ligand binding to the nuclear receptor FXR was performed as follows.
# Preparation of human FXR alpha ligand binding domain (LBD): The human FXRalpha LBD was expressed in E. coli strain BL21(DE3) as an N-terminally GST tagged fusion protein. The DNA encoding the FXR ligand binding domain was cloned into vector pDEST15 (Invitrogen). Expression was under control of an IPTG inducible T7 promoter. The amino acid boundaries of the ligand binding domain were amino acids 187-472 of Database entry NM 005123 (RefSeq). Expression and purification of the FXR-LBD: An overnight preculture of a transformed E. coli strain was diluted 1:20 in LB-Ampicillin medium and grown at 30° C. to an optical density of OD600=0.4−0.6. Gene expression was then induced by addition of 0.5 mM IPTG. Cells were incubated an additional 6 h at 30° C., 180 rpm. Cells were collected by centrifugation (7000×g, 7 minutes, room temperature). […] The protein was analysed by SDS-Page.
# The method measures the ability of putative ligands to modulate the interaction between the purified bacterially expressed FXR ligand binding domain (LBD) and a synthetic biotinylated peptide based on residues 676-700 of SRC-1 (LCD2, 676-700). […] The ligand binding domain (LBD) of FXR was expressed as fusion protein with GST in BL-21 cells using the vector pDEST15. […] For ease of handling and reduction of background from compound fluorescence LANCE technology makes use of generic fluorophore labels and time resolved detection Assays were done in a final volume of 25 μL in a 384 well plate, in a Tris-based buffer (20 mM Tris-HCl pH 7.5; 60 mM KCl, 5 mM MgCl2; 35 ng/μL BSA), containing 20-60 ng/well recombinantly expressed FXR-LBD fused to GST, 200-600 nM N-terminally biotinylated peptide, representing SRC1 aminoacids 676-700, 200 ng/well Streptavidin-xlAPC conjugate (Prozyme) and 6-10 ng/well Eu W1024-antiGST (Perkin Elmer). […] The LANCE signal was detected by a Perkin Elmer VICTOR2VTM Multilabel Counter. […]
row,EC50 [nM],Structure (SMILES)
1,7.5,"O=C(O)c1cnc(N2CC(O)(c3ccc(OCc4c(-c5c(Cl)cc(F)cc5Cl)noc4C4CC4)cc3Cl)C2)c(F)c1 [Comparative Example 1, 6-(3-(2-chloro-4-((5-cyclopropyl-3-(2,6-dichloro-4-fluorophenyl)isoxazol-4-yl)methoxy)phenyl)-3-hydroxyazetidin-1-yl)-5-fluoronicotinic acid]"
2,3.4,O=C(O)c1ccc(N2CC(O)(c3ccc(OCc4c(-c5c(Cl)cccc5Cl)noc4C4CC4)cc3Cl)C2)nc1 [Comparative Example 2]
3,14.2,"O=C(O)c1ccc(N2CC(O)(c3ccc(OCc4c(-c5c(Cl)cc(F)cc5Cl)noc4C4CC4)cc3Cl)C2)nc1 [Example 1, 6-(3-(2-chloro-4-((5-cyclopropyl-3-(2,6-dichloro-4-fluorophenyl)isoxazol-4-yl)methoxy)phenyl)-3-hydroxyazetidin-1-yl)nicotinic acid]"
